Like-named read-outs stand apart in the source and are kept apart here.
Assays:
human 5-HT2C receptor = molecular target: T1, human 5-HT2C receptor (Homo sapiens, UniProt P28335); assay: 5-HT2C receptor-stimulated calcium mobilization (FLIPR) in CHO cells; assay type: cell-based; conditions: for Emax: CHO, read-out: 5-HT2C Function EMax (%); for EC50: read-out: 5-HT2C Function EC50
T1 sequence (P28335 33-458): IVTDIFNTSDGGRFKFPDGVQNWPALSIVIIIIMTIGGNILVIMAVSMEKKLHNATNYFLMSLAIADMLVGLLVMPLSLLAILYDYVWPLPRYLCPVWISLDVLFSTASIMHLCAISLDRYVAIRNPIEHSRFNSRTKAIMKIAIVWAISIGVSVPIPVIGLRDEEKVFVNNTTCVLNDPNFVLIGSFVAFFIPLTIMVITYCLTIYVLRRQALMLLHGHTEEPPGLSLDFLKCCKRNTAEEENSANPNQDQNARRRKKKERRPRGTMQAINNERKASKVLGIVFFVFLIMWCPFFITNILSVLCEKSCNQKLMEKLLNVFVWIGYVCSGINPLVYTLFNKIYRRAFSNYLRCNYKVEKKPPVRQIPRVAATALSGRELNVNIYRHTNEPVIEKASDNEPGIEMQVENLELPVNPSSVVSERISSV

[1] = molecular target: T2, human 5-hydroxytryptamine-2C (h5-HT2C) receptor (Homo sapiens, UniProt P28335); assay: 5-HT2C binding: [125I]DOI displacement in membranes of transfected CHO cells
T2 construct: expressed in transfected cells; host or cells: CHO (Chinese Hamster Ovary) cells; membranes
T2 sequence (P28335 33-458): T1 sequence (P28335 33-458)

[2] = read-out: 5-HT2C Binding Ki avg

Structure (SMILES)	Emax (human 5-HT2C receptor) [%]	EC50 (human 5-HT2C receptor) [nM]	Ki [1, 2] [nM]	Ki ([1]; reference compounds, 95% confidence interval in the next column, read-out: Ki) [nM]
NCC1COc2cccc(-c3ccccc3F)c2O1 (centres unmarked) [Compound I-2, {[8-(2-Fluorophenyl)-2,3-dihydro-1,4-benzodioxin-2-yl]methyl}amine]	70	< 100	< 50	–
Cc1ccccc1-c1cccc2c1OC(CN)CO2 (centres unmarked) [Compound I-3, {[8-(2-Methylphenyl)-2,3-dihydro-1,4-benzodioxin-2-yl]methyl}amine]	60	< 100	< 50	–
COc1ccccc1-c1cccc2c1OC(CN)CO2 (centres unmarked) [Compound I-5, {[8-(2-Methoxyphenyl)-2,3-dihydro-1,4-benzodioxin-2-yl]methyl}amine]	60	< 100	50 to 200	–
NCC1COc2cccc(-c3cccc(Cl)c3Cl)c2O1 (centres unmarked) [Compound I-6, {[8-(2,3-Dichlorophenyl)-2,3-dihydro-1,4-benzodioxin-2-yl]methyl}amine]	70	100 to 500	50 to 200	–
NCC1COc2cccc(-c3ccc(Cl)cc3Cl)c2O1 (centres unmarked) [Compound I-7, {[8-(2,4-Dichlorophenyl)-2,3-dihydro-1,4-benzodioxin-2-yl]methyl}amine]	70	< 100	< 50	–
NCC1COc2cccc(-c3cc(Cl)ccc3Cl)c2O1 (centres unmarked) [Compound I-8, {[8-(2,5-Dichlorophenyl)-2,3-dihydro-1,4-benzodioxin-2-yl]methyl}amine]	60	< 100	< 50	–
COc1cccc(-c2cccc3c2OC(CN)CO3)c1OC (centres unmarked) [Compound I-9, {[8-(2,3-Dimethoxyphenyl)-2,3-dihydro-1,4-benzodioxin-2-yl]methyl}amine]	50	< 100	< 50	–
Cc1cccc(-c2cccc3c2OC(CN)CO3)c1C (centres unmarked) [Compound I-10, {[8-(2,3-Dimethylphenyl)-2,3-dihydro-1,4-benzodioxin-2-yl]methyl}amine]	50	100 to 500	> 200	–
Cc1ccc(C)c(-c2cccc3c2OC(CN)CO3)c1 (centres unmarked) [Compound I-11, {[8-(2,5-Dimethylphenyl)-2,3-dihydro-1,4-benzodioxin-2-yl]methyl}amine]	60	100 to 500	> 200	–
Cc1cccc(C)c1-c1cccc2c1OC(CN)CO2 (centres unmarked) [Compound I-12, {[8-(2,6-Dimethylphenyl)-2,3-dihydro-1,4-benzodioxin-2-yl]methyl}amine]	70	< 100	< 50	–
NCC1COc2cccc(-c3cccc(F)c3F)c2O1 (centres unmarked) [Compound I-13, {[8-(2,3-Difluorophenyl)-2,3-dihydro-1,4-benzodioxin-2-yl]methyl}amine]	70	< 100	< 50	–
NCC1COc2cccc(-c3ccc(F)cc3F)c2O1 (centres unmarked) [Compound I-14, {[8-(2,4-Difluorophenyl)-2,3-dihydro-1,4-benzodioxin-2-yl]methyl}amine]	70	< 100	< 50	–
NCC1COc2cccc(-c3cc(F)ccc3F)c2O1 (centres unmarked) [Compound I-15, {[8-(2,5-Difluorophenyl)-2,3-dihydro-1,4-benzodioxin-2-yl]methyl}amine]	60	< 100	< 50	–
COc1ccc(Cl)cc1-c1cccc2c1OC(CN)CO2 (centres unmarked) [Compound I-16, {[8-(5-Chloro-2-methoxyphenyl)-2,3-dihydro-1,4-benzodioxin-2-yl]methyl}amine]	60	< 100	50 to 200	–
CNCC1COc2cccc(-c3ccccc3F)c2O1 (centres unmarked) [Compound I-18, {[8-(2-Fluorophenyl)-2,3-dihydro-1,4-benzodioxin-2-yl]methyl}methylamine]	50	< 100	< 50	–
NC[C@H]1COc2cccc(-c3ccccc3Cl)c2O1 [Compound I-56, 1-[(2S)-8-(2-CHLOROPHENYL)-2,3-DIHYDRO-1,4-BENZODIOXIN-2-YL]METHANAMINE]	–	–	< 50	–

Structure (SMILES)	Emax (human 5-HT2C receptor) [%]	EC50 (human 5-HT2C receptor) [nM]	Ki [1, 2] [nM]	Ki ([1]; reference compounds, 95% confidence interval in the next column, read-out: Ki) [nM]
Cc1cc(Cl)ccc1-c1cc(Cl)cc2c1O[C@@H](CN)CO2 [Compound I-65, (2S)-[6-Chloro-8-(4-chloro-2-methyl-phenyl)-2,3-dihydro-benzo[1,4]dioxin-2-yl]-methylamine]	–	–	< 50	–
COc1ccc(Cl)cc1-c1cc(Cl)cc2c1O[C@@H](CN)CO2 [Compound I-68, (2S)-[6-Chloro-8-(5-chloro-2-methoxy-phenyl)-2,3-dihydro-benzo[1,4]dioxin-2-yl]-methylamine]	–	–	50 to 200	–
Cc1ccccc1-c1c(Cl)ccc2c1O[C@@H](CN)CO2 [Compound I-72, ((2S)-7-Chloro-8-o-tolyl-2,3-dihydrobenzo[b][1,4]dioxin-2-yl)methanamine]	–	–	< 50	–
NCC1Oc2cc(F)cc(-c3ccccc3)c2O1 (centres unmarked) [Compound I-77, 1-(6-Fluoro-4-phenyl-1,3-benzodioxol-2-yl)methanamine]	–	–	50 to 200	–
NCC1Oc2cc(F)cc(-c3cccc(Cl)c3)c2O1 (centres unmarked) [Compound I-78, 1-[4-(3-Chlorophenyl)-6-fluoro-1,3-benzodioxol-2-yl]methanamine]	–	–	50 to 200	–
NCC1Oc2cc(F)cc(-c3ccc(Cl)cc3)c2O1 (centres unmarked) [Compound I-79, 1-[4-(4-Chloro-phenyl)-6-fluoro-1,3-benzodioxol-2-yl]methanamine]	–	–	50 to 200	–
CCNCC1Oc2cc(F)cc(-c3ccccc3Cl)c2O1 (centres unmarked) [Compound I-88, N-{[4-(2-Chlorophenyl)-6-fluoro-1,3-benzodioxol-2-yl]methyl}ethanamine]	–	–	50 to 200	–
CN(C)CC1Oc2cc(F)cc(-c3ccccc3Cl)c2O1 (centres unmarked) [Compound I-89, 1-[4-(2-chlorophenyl)-6-fluoro-1,3-benzodioxol-2-yl]-N,N-dimethylmethanamine]	–	–	50 to 200	–
COc1ccccc1-c1cc(Cl)cc2c1OC(CN)O2 (centres unmarked) [Compound I-92, [6-Chloro-4-(2-methoxy-phenyl)-benzo[1,3]dioxol-2-yl]-methylamine]	–	–	50 to 200	–
NCC1Oc2cc(Cl)cc(-c3ccccc3F)c2O1 (centres unmarked) [Compound I-93, [6-Chloro-4-(2-fluoro-phenyl)-benzo[1,3]dioxol-2-yl]-methylamine]	–	–	50 to 200	–
COc1ccc(Cl)cc1-c1cc(Cl)cc2c1OC(CN)O2 (centres unmarked) [Compound I-94, [6-Chloro-4-(2-methoxy-5-chloro-phenyl)-benzo[1,3]dioxol-2-yl]-methylamine]	–	–	> 200	–
COc1cccc(-c2cc(Cl)cc3c2OC(CN)O3)c1OC (centres unmarked) [Compound I-95, [6-Chloro-4-(2,3-dimethoxy-phenyl)-benzo[1,3]dioxol-2-yl]-methylamine]	–	–	50 to 200	–
Cc1cc(Cl)ccc1-c1cc(Cl)cc2c1OC(CN)O2 (centres unmarked) [Compound I-97, [6-Chloro-4-(4-chloro-2-methyl-phenyl)-benzo[1,3]dioxol-2-yl]-methylamine]	–	–	50 to 200	–
NCC1Oc2cc(Cl)cc(-c3cc(F)ccc3F)c2O1 (centres unmarked) [Compound I-99, [6-Chloro-4-(2,5-difluoro-phenyl)-benzo[1,3]dioxol-2-yl]-methylamine]	–	–	50 to 200	–
COc1ccc(OC)c(-c2cc(Cl)cc3c2OC(CN)O3)c1 (centres unmarked) [Compound I-100, [6-Chloro-4-(2,5-dimethoxy-phenyl)-benzo[1,3]dioxol-2-yl]-methylamine]	–	–	> 200	–
CSc1ccc2c(c1)C(N1CCN(C)CC1)Cc1ccccc1S2 (centres unmarked) [Methiothepin, reference compound]	–	–	–	4.6

Source: patent US20060241172A1, “Benzodioxane and benzodioxolane derivatives and uses thereof” (Wyeth, priority 2005, published 2006)
